# Test results: patent US8835432B2, “Heterocyclic compounds and their uses” (Amgen Inc., priority 2012, dated 2014)
# What was measured:
# [1] = system: mouse model of rheumatoid arthritis; conditions: in vivo; cited from earlier work
# [2] = system: model of systemic lupus erythematosis; conditions: in vivo; cited from earlier work
# PI3K d = biological target: T1, PI3K d (Homo sapiens, UniProt O00329); assay: In vitro enzyme assay, PI3K delta; format: biochemical
# T1 construct: Full length p110 subunits of PI3k α, β and δ, N-terminally labeled with polyHis tag; polyHis (N); made in house; host or cells: Sf9 insect cells (baculovirus)
# T1 sequence (O00329 whole entry): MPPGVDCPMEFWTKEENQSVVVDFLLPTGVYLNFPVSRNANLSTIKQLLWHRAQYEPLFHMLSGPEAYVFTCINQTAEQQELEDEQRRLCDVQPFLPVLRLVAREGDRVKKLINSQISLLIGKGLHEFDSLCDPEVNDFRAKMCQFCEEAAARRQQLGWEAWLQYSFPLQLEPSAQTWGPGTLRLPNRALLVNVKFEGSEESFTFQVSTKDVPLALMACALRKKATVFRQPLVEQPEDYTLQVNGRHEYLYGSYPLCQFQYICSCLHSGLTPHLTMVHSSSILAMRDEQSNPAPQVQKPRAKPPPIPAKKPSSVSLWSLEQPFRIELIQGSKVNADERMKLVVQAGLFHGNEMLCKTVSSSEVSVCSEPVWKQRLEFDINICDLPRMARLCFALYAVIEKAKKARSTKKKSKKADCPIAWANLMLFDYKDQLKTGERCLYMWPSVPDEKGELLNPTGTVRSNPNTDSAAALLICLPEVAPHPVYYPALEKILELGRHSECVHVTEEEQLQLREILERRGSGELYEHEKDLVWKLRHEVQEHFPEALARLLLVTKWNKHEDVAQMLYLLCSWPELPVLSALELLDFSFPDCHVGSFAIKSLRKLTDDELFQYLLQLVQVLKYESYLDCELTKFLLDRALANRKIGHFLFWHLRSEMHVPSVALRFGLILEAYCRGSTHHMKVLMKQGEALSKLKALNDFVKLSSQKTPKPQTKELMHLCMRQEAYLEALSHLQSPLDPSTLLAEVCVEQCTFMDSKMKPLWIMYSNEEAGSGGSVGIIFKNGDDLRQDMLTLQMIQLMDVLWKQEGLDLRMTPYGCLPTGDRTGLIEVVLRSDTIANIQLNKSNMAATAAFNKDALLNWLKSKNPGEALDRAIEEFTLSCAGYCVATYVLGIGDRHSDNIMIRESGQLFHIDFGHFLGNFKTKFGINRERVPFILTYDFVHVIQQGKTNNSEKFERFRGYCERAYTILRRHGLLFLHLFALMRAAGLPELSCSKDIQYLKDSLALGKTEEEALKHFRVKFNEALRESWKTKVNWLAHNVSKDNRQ
# T1 sequence (P27986 whole entry partner): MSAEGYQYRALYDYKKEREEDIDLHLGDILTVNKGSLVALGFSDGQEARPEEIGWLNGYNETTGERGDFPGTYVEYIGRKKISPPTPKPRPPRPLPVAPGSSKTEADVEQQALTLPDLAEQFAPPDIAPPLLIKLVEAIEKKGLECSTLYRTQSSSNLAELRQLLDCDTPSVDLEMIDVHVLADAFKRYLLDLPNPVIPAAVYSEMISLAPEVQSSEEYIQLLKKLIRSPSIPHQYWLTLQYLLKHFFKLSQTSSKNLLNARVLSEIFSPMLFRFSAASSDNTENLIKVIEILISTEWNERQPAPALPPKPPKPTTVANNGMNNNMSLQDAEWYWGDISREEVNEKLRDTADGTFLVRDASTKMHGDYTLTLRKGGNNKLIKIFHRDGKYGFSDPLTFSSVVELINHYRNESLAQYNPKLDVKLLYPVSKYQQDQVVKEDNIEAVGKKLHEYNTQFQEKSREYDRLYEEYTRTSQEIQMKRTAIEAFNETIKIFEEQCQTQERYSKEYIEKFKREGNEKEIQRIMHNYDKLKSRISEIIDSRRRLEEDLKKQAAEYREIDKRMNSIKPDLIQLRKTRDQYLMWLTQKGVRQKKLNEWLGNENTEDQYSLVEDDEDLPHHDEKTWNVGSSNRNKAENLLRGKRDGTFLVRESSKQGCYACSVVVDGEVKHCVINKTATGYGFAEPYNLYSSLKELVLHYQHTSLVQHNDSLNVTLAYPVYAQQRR
# Experimental: (§1) Full length p110 subunits of PI3k α, β and δ, N-terminally labeled with polyHis tag, were coexpressed with p85 with Baculo virus expression vectors in sf9 insect cells. P110/p85 heterodimers were purified by sequential Ni-NTA, Q-HP, Superdex-100 chromatography. Purified α, β and δ isozymes were stored at −20° C. in 20 mM Tris, pH 8, 0.2M NaCl, 50% glycerol, 5 mM DTT, 2 mM Na cholate. Truncated PI3Kγ, residues 114-1102, N-terminally labeled with polyHis tag, was expressed with Baculo virus in Hi5 insect cells. The γ isozyme was purified by sequential Ni-NTA, Superdex-200, Q-HP chromatography. The γ isozyme was stored frozen at −80° C. in NaH2PO4, pH 8, 0.2M NaCl, 1% ethylene glycol, 2 mM β-mercaptoethanol.
# (§2) Assays were performed in 25 μL with the above final concentrations of components in white polyproplyene plates (Costar 3355). Phospatidyl inositol phosphoacceptor, PtdIns(4,5)P2 P4508, was from Echelon Biosciences. The ATPase activity of the alpha and gamma isozymes was not greatly stimulated by PtdIns(4,5)P2 under these conditions and was therefore omitted from the assay of these isozymes. Test compounds were dissolved in dimethyl sulfoxide and diluted with three-fold serial dilutions. The compound in DMSO (1 μL) was added per test well, and the inhibition relative to reactions containing no compound, with and without enzyme was determined After assay incubation at rt, the reaction was stopped and residual ATP determined by addition of an equal volume of a commercial ATP bioluminescence kit (Perkin Elmer EasyLite) according to the manufacturer's instructions, and detected using a AnalystGT luminometer.
# PI3K b = assay: In vitro enzyme assay, PI3K beta; format: biochemical; conditions: ratio of beta to delta IC50
# Experimental: as §1, §2
# PI3Ka = biological target: T2, PI3Ka (Homo sapiens, UniProt P42336); assay: In vitro enzyme assay, PI3K alpha; format: biochemical; conditions: for PI3K: a/d: ratio of alpha to delta IC50
# T2 construct: Full length p110 subunits of PI3k α, β and δ, N-terminally labeled with polyHis tag; polyHis (N); made in house; host or cells: Sf9 insect cells (baculovirus)
# Experimental: as §1, §2
# PI3Kg = biological target: T3, PI3Kg (Homo sapiens, UniProt P48736); assay: In vitro enzyme assay, PI3K gamma; format: biochemical; conditions: for PI3K: g/d: ratio of gamma to delta IC50
# T3 construct: Truncated PI3Kγ, residues 114-1102, N-terminally labeled with polyHis tag; polyHis (N); made in house; host or cells: Hi5 insect cells (baculovirus)
# T3 sequence (P48736 114-1102): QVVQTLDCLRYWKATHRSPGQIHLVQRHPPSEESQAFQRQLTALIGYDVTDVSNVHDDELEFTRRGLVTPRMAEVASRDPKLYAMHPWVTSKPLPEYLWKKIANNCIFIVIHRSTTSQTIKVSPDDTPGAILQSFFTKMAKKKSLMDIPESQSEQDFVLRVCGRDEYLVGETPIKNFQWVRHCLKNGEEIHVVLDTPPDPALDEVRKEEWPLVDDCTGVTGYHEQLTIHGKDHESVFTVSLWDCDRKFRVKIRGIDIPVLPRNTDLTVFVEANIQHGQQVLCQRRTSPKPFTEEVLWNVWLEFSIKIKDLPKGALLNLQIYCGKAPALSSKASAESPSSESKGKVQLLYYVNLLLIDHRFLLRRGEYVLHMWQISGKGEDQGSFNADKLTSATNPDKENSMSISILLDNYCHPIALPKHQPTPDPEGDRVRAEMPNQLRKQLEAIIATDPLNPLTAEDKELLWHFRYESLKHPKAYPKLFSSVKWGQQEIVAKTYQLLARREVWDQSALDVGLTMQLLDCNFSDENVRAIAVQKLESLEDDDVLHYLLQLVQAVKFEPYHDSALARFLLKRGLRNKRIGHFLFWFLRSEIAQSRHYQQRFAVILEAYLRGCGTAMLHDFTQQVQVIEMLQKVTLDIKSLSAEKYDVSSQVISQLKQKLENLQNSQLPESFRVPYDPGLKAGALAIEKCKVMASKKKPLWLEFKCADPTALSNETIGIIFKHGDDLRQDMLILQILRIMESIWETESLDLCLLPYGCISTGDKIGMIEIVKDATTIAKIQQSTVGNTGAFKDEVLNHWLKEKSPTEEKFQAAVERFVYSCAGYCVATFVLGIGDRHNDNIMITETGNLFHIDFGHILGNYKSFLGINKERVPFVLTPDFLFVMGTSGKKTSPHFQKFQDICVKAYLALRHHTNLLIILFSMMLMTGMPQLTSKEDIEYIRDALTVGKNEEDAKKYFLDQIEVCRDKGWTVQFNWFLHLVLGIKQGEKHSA
# Experimental: as §1, §2
# mu splenocytes pAKT = assay: on target anti-IgM mu splenocytes pAKT; format: cell-based; conditions: Mus musculus, Splenocyte, read-out: on target anti-IgM mu splenocytes pAKT (Hu splenocytes PAKT)
# PI3KIII = biological target: T4, PI3KIII (Homo sapiens, UniProt Q8NEB9); assay: Class III PI(3)P assay (U20S EGFP-2XFYVE cells); format: cell-based
# T4 construct: host or cells: U2OS EGFP-2XFYVE cells
# T4 sequence (Q8NEB9 whole entry): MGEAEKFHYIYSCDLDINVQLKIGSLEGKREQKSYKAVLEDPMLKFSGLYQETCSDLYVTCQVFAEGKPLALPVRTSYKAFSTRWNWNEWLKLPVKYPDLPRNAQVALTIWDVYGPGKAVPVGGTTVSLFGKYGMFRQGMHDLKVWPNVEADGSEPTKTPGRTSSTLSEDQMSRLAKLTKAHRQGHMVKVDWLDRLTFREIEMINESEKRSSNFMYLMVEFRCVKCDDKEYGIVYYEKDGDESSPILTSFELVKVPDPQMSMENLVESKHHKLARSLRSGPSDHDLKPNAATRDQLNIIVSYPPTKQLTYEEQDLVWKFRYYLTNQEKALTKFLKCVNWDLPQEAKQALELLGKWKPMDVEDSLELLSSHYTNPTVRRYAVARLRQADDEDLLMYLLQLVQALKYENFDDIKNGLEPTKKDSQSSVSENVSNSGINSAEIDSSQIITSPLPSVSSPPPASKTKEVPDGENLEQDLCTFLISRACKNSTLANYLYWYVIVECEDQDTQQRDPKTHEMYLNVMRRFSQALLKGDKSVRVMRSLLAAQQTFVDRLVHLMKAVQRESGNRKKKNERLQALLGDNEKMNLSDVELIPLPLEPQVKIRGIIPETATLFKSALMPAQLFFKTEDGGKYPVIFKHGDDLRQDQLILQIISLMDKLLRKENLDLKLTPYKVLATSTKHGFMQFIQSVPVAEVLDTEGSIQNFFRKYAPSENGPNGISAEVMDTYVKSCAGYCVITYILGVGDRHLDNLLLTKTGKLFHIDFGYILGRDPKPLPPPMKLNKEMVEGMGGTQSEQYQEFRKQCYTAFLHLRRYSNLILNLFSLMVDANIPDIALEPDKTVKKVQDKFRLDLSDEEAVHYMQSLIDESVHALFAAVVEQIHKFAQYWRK
# Experimental: (§3) GFP Assays for Detecting Inhibition of Class Ia and Class III PI3K
# FYVE domains bind to PI(3)P. the majority is generated by constitutive action of PI3K Class III
# Class III PI(3)P assay (U20S EGFP-2XFYVE Cells/GE Healthcare)
# Wash cells with assay buffer. Treat with compounds in assay buffer 1 h. Fix and image.
# Control for all 3 assays is […] Wortmannin:
# PI(3)P depleted from endosomes
# pAKT = pAKT in vivo assay; conditions: mice, p.o.; for in vivo pAKT data, ED50 (uM) WB: first value of the cell; for in vivo pAKT data, ED50 (uM) spleenocytes: second value of the cell
# Experimental: Vehicle and compounds are administered p.o. (0.2 mL) by gavage (Oral Gavage Needles Popper & Sons, New Hyde Park, N.Y.) to mice (Transgenic Line 3751, female, 10-12 wks Amgen Inc, Thousand Oaks, Calif.) 15 min prior to the injection i.v (0.2 mLs) of anti-IgM FITC (50 ug/mouse) (Jackson Immuno Research, West Grove, Pa.). After 45 min the mice are sacrificed within a CO2 chamber. Blood is drawn via cardiac puncture (0.3 mL) (1cc 25 g Syringes, Sherwood, St. Louis, Mo.) and transferred into a 15 mL conical vial (Nalge/Nunc International, Denmark). Blood is immediately fixed with 6.0 mL of BD Phosflow Lyse/Fix Buffer (BD Bioscience, San Jose, Calif.), inverted 3X's and placed in 37° C. water bath. Half of the spleen is removed and transferred to an eppendorf tube containing 0.5 mL of PBS (Invitrogen Corp, Grand Island, N.Y.). The spleen is crushed using a tissue grinder (Pellet Pestle, Kimble/Kontes, Vineland, N.J.) and immediately fixed with 6.0 mL of BD Phosflow Lyse/Fix buffer, inverted 3X's and placed in 37° C. water bath. Once tissues have been collected the mouse is cervically-dislocated and carcass to disposed. After 15 min, the 15 mL conical vials are removed from the 37° C. water bath and placed on ice until tissues are further processed. Crushed spleens are filtered through a 70 μm cell strainer (BD Bioscience, Bedford, Mass.) into another 15 mL conical vial and washed with 9 mL of PBS. Splenocytes and blood are spun @ 2,000 rpms for 10 min (cold) and buffer is aspirated. Cells are resuspended in 2.0 mL of cold (−20° C.) 90% methyl alcohol (Mallinckrodt Chemicals, Phillipsburg, N.J.). MeOH is slowly added while conical vial is rapidly vortexed. Tissues are then stored at −20° C. until cells can be stained for FACS analysis.
# PI3Kb [3] = biological target: T5, PI3Kb (Homo sapiens, UniProt P42338); assay: Forkhead translocation assay (MDA MB468 Forkhead-DiversaGFP cells); format: cell-based; parameters: endogenous in cells; host or cells: MDA MB468 (Forkhead-DiversaGFP) cells; conditions: first value of the cell; MDA468 forkhead; read-out: PI3KbMDA468 FH
# T5 sequence (P42338 whole entry): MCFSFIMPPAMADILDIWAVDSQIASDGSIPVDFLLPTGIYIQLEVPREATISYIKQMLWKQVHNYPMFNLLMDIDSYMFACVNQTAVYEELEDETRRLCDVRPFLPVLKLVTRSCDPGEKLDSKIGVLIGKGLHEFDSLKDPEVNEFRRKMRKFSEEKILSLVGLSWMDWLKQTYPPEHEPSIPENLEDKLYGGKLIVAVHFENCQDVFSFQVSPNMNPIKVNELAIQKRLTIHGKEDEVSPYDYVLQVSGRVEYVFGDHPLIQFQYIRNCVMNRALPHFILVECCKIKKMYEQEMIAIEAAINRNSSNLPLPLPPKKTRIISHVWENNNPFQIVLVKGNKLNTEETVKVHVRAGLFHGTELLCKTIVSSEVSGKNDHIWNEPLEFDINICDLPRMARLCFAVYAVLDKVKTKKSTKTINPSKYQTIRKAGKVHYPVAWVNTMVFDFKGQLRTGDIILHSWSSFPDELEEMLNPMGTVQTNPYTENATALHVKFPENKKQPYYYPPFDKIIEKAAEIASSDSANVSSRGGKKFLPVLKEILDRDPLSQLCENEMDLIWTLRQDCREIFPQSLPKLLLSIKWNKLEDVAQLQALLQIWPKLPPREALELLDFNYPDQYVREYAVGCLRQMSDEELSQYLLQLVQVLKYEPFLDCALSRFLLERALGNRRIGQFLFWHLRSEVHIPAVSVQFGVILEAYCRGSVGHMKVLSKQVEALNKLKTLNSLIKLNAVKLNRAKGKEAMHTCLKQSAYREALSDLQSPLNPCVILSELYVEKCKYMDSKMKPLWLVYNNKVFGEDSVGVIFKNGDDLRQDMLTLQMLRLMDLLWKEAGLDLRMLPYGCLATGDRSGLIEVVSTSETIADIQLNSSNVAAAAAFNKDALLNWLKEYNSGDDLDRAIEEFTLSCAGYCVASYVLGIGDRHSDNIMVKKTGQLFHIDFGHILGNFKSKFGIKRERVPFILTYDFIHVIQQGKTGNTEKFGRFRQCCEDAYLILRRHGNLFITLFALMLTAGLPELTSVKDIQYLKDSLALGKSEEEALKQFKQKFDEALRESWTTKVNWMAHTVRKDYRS
# T5 sequence (P27986 whole entry partner): as the sequence (P27986 whole entry partner) above
# Experimental: as §3
# Forkhead (FKHRL1) is a substrate for AKT1. It is cytoplasmic when phosphorylated by AKT (survival/growth). Inhibition of AKT (stasis/apoptosis)-forkhead translocation to the nucleus
# Forkhead Translocation Assay (MDA MB468 Forkhead-DiversaGFP Cells)
# Treat cells with compound in growth medium 1 h. Fix and image.
# PI3Kb [4] = biological target: T5, PI3Kb; assay: PI3Kb MB MDA468 cell assay; format: cell-based; parameters: endogenous in cells; host or cells: MDA MB468 (Forkhead-DiversaGFP) cells; conditions: second value of the cell; read-out: PI3KbMBMDA468
# PI3Kb [5] = biological target: T5, PI3Kb; assay: In vitro enzyme assay, PI3K beta; format: biochemical; parameters: Full length p110 subunits of PI3k α, β and δ, N-terminally labeled with polyHis tag; polyHis (N); made in house; host or cells: Sf9 insect cells (baculovirus); conditions: read-out: P13K b IC50
# Experimental: as §1, §2
# p110δ = p110δ (Homo sapiens, UniProt O00329); conditions: cited from earlier work
# Sequence of p110δ (O00329 whole entry, species assumed): as the sequence (O00329 whole entry) above
# protein kinases = conditions: cited from earlier work
# murine model of asthma = conditions: ovalbumin-induced airway inflammation; cited from earlier work
SMILES,IC50 (PI3K d) [nM],PI3K: b/d (PI3K b),PI3Ka IC50 (PI3Ka) [nM],PI3K: a/d (PI3Ka),IC50 (PI3Kg) [nM],PI3K: g/d (PI3Kg),IC50 (mu splenocytes pAKT) [nM],IC50 (PI3KIII) [nM],IC50 (PI3Kb [3]) [nM],IC50 (PI3Kb [4]) [nM],IC50 (PI3Kb [5]) [nM],"in vivo pAKT data, ED50 (uM) WB (pAKT)","in vivo pAKT data, ED50 (uM) spleenocytes (pAKT) [uM]",other results
O=C1NC(=O)/C(=C\c2ccc3nccnc3c2)S1 [AS 605240],–,–,–,–,–,–,–,–,–,–,–,–,–,efficacy in a mouse model of rheumatoid arthritis [1]: efficacious; onset of disease in a model of systemic lupus erythematosis [2]: delay onset of disease
"C[C@H](Nc1ncnc(N)c1C#N)c1cc2ccc(F)cc2nc1-c1ccccc1S(C)(=O)=O [Example 2, (S)-4-amino-6-((1-(7-fluoro-2-(2-(methylsulfonyl)phenyl)quinolin-3-yl)ethyl)-amino)pyrimidine-5-carbonitrile]",7.8,174,7040,903,804,103,1.2,> 10000,> 10000,811,1360,0.36 uM,0.26,–
"C[C@H](Nc1ncnc(N)c1C#N)c1cc2ccc(F)cc2nc1-c1ccccn1 [Example 4, 4-amino-6-((S)-1-(7-fluoro-2-(pyridin-2-yl)quinolin-3-yl)ethylamino)-pyrimidine-5-carbonitrile]",10,52,12060,1206,448,45,1.8,> 10000,1950,620,522,–,–,–
"C[C@H](Nc1ncnc(N)c1C#N)c1nc2cccc(Cl)c2nc1-c1ccccc1S(C)(=O)=O [Example 5, (S)-4-amino-6-((1-(5-chloro-3-(2-(methylsulfonyl)phenyl)quinoxalin-2-yl)-ethyl)amino)pyrimidine-5-carbonitrile]",2.6,251,5160,1985,620,238,5,> 10000,> 10000,> 10000,652,0.056 uM,0.012,–
Cc1ccccc1-n1c(Cn2cnc3c(N)ncnc32)nc2cccc(C)c2c1=O [IC87114],–,–,–,–,–,–,–,–,–,–,–,–,–,inhibits p110δ (p110δ): high nanomolar range (triple digit); selectivity against p110α (p110δ; delta versus p110α): greater than 100 fold; selective against p110β (p110δ; delta versus p110β): 52 fold; selectivity against p110γ (p110δ; delta versus p110γ): approx. 8 fold; activity against any protein kinases tested (protein kinases): no activity; inflammation and disease in a murine model of asthma (murine model of asthma): significantly ameliorate inflammation and disease

# More lines, in order of falling IC50 (PI3K d), values ahead:
IC50 (PI3K d) [nM],PI3K: b/d (PI3K b),PI3Ka IC50 (PI3Ka) [nM],PI3K: a/d (PI3Ka),IC50 (PI3Kg) [nM],PI3K: g/d (PI3Kg),IC50 (mu splenocytes pAKT) [nM],IC50 (PI3KIII) [nM],IC50 (PI3Kb [3]) [nM],IC50 (PI3Kb [4]) [nM],IC50 (PI3Kb [5]) [nM],SMILES,"in vivo pAKT data, ED50 (uM) WB (pAKT)","in vivo pAKT data, ED50 (uM) spleenocytes (pAKT) [uM]",other results
7,829,25000,3571,2800,400,6,> 10000,–,11000,5800,"C[C@H](Nc1ncnc(N)c1C#N)c1nc2cccc(C#N)c2nc1-c1ccccc1S(C)(=O)=O [Example 6, 2-((S)-1-(6-amino-5-cyanopyrimidin-4-ylamino)ethyl)-3-(2-(methylsulfonyl)-phenyl)quinoxaline-5-carbonitrile]",0.13 (WB) uM,–,–
5.1,85,3420,671,62.9,12,1.5,> 10000,3800,483,434,"C[C@H](Nc1ncnc(N)c1C#N)c1cc2ccc(F)cc2nc1-c1cccc(F)c1 [Example 3, 4-amino-6-((S)-1-(7-fluoro-2-(3-fluorophenyl)quinolin-3-yl)ethylamino)-pyrimidine-5-carbonitrile]",–,–,–
3,1580,9980,3327,1610,537,2.2,> 10000,5970,2600,4740,"C[C@H](Nc1ncnc(N)c1C#N)c1cc2cccc(F)c2nc1-c1ccccc1S(C)(=O)=O [Example 1, 4-amino-6-(((1S)-1-(8-fluoro-2-(2-(methylsulfonyl)phenyl)-3-quinolinyl)-ethyl)amino)-5-pyrimidinecarbonitrile]",0.041 uM,0.010,–
